Each structure is given as a SMILES string.

A short description of the test: DPPH radical scavenging (antioxidant) assay. To be noted: vitamin C 1 mM. It counts as biochemical. Here is the method:
The antioxidant activity of the natural composite preservatives was analyzed with DPPH (1,1-diphenyl-2-picrylhydrazyl). DPPH is a color radical generally used in determining radical scavenging capacity. Test samples were dissolved in 4 ml of distilled water or a solvent and mixed with 1 ml of 100 μM DPPH before incubation at room temperature for 30 min. Absorbance at 517 nm was read to calculate the amount of remaining DPPH (blank: distilled water or solvent only, control: DPPH alone in distilled water or solvent). Radical Scavenging Activity (RSA) was expressed as percentages of the test groups relative to the control, as calculated by the following equation 1.

Regarding `O=C1O[C@H]([C@@H](O)CO)C(O)=C1O` [vitamin C], the RSA came to 35%.

(Values after patent US20070231403A1, “Natural composite preservatives” (priority 2006, published 2007).)
